Laboratory results as given in ChEMBL document CHEMBL1137044, “Benzothiophene and naphthalene derived constrained SERMs” (Bioorg Med Chem Lett, 2004).

How the values were obtained:
[1] = target: T1, Estrogen receptor (Homo sapiens, UniProt Q92731+P03372); assay type: functional, cell-based; settings: ishikawa
[2] = target: T1, Estrogen receptor; assay: Agonist activity as alkaline phosphatase induction in Ishikawa endometrial cells compared to E2; assay type: functional, cell-based
[3] = Inhibition of [3H]estradiol binding to Estrogen receptor alpha
[4] = target: T1, Estrogen receptor; assay: Antagonist effect against 10 pM 17-beta-estradiol induced MCF-7 cell proliferation; assay type: functional, cell-based
[5] = Inhibition of [3H]estradiol binding to Estrogen receptor beta

Row | IC50 [1] [nM] | EC50 [2] [nM] | Ki [3] [nM] | IC50 [4] [nM] | Ki [5] [nM] | SMILES
1 | 130 | 2.6 | 1 | 6.6 | 3.2 | Oc1ccc2c(c1)C(c1ccc(OCCN3CCCCC3)cc1)c1c(ccc3cc(O)ccc13)C2 (stereo not drawn)
2 | 50 | 0.7 | 1.1 | 2.9 | 5.4 | Oc1ccc2c3c(ccc2c1)Cc1c(O)cccc1C3c1ccc(OCCN2CCCCC2)cc1 (stereo not drawn)
3 | 710 | 3.5 | 2.4 | 17 | 5.3 | Oc1ccc2c3c(sc2c1)Cc1ccccc1C3c1ccc(C(O)CCN2CCCCC2)cc1 (stereo not drawn)
4 | 680 | 3.1 | 2.6 | 42 | 14 | Oc1ccc2c3c(sc2c1)Cc1cccc(O)c1C3c1ccc(C(O)CCN2CCCCC2)cc1 (stereo not drawn)
5 | 53 | 0.9 | 0.5 | 0.9 | 0.9 | Oc1ccc2c(c1)C(c1ccc(C(O)CCN3CCCCC3)cc1)c1c(sc3cc(O)ccc13)C2 (stereo not drawn)
6 | 580 | 28 | 7.7 | 68 | 40 | Oc1ccc2c3c(ccc2c1)Cc1cccc(O)c1C3c1ccc(OCCN2CCCCC2)cc1 (stereo not drawn)
7 | – | – | 0.7 | – | 4.4 | Oc1ccc2c(c1)Cc1ccc3cc(O)ccc3c1C2c1ccc(OCCN2CCCCC2)cc1 (single isomer, unassigned)
8 | – | – | 1.1 | – | 5.5 | Oc1ccc2c(c1)Cc1ccc3cc(O)ccc3c1C2c1ccc(OCCN2CCCCC2)cc1 (stereo in doubt; form 1)
9 | – | – | 0.8 | – | 4.2 | Oc1ccc2c(c1)Cc1ccc3cc(O)ccc3c1C2c1ccc(OCCN2CCCCC2)cc1 (stereo in doubt; form 2)

Row | SMILES | IC50 [1] [nM] | EC50 [2] [nM] | Ki [3] [nM] | IC50 [4] [nM] | Ki [5] [nM]
10 | Oc1ccc2c(c1)sc1cc3ccc(O)cc3c(-c3ccc(C(O)CCN4CCCCC4)cc3)c12 (stereo not drawn) | 690 | 1.6 | 0.4 | 1 | 0.3
11 | Oc1ccc2c(ccc3cc4ccc(O)cc4c(-c4ccc(OCCN5CCCCC5)cc4)c32)c1 | 820 | 10 | 0.8 | 57 | 0.5
12 | Oc1ccc2c(c1)Cc1sc3cc(O)ccc3c1C2c1ccc(C(O)CCN2CCCCC2)cc1 (stereo not drawn) | 45 | 0.4 | 0.7 | 0.7 | 1.3
13 | CCC(=C(c1ccc(O)cc1)c1ccc(OCCN(C)C)cc1)c1ccccc1 | – | – | 0.5 | – | 0.5
